Data from article PMC3368886, “ATPase Cycle and DNA Unwinding Kinetics of RecG Helicase” (PLoS ONE, 2012).

How the values were obtained:
RecG [1] = target: T1, RecG (Thermotoga maritima, UniProt Q9WY48); test: Phosphate-water oxygen exchange during hydrolysis; assay type: biochemical; settings: DNA present (A40∶B40), γ-18O3 nucleotide, 25°C
T1 construct: made in house
T1 sequence (Q9WY48 1-780): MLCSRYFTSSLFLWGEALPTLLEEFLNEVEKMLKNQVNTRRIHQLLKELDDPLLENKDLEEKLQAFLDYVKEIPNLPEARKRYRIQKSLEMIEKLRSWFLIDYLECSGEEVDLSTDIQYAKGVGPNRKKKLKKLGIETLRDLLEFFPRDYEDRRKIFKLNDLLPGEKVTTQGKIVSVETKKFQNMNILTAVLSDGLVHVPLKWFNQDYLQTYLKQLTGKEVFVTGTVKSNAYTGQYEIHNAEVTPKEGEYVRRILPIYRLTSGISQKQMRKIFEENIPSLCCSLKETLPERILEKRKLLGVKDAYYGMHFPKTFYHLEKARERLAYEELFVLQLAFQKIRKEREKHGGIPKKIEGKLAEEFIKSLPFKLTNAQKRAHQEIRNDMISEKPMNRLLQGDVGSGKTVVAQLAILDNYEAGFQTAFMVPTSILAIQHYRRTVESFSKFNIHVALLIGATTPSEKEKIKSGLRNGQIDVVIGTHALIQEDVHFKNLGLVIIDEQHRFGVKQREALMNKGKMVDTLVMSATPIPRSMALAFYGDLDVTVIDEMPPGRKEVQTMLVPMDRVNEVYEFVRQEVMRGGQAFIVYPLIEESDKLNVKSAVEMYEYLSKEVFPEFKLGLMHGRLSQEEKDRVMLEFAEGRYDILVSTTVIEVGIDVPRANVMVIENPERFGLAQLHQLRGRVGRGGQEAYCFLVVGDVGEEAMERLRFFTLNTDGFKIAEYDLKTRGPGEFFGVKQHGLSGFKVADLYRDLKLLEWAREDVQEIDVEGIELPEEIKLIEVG
From the text: In order to get information about the reverse of cleavage step 2 (scheme in Figure 2A), phosphate-water oxygen exchange measurements were done using (γ-^18O3)mantATP. Intermediate exchange can occur between terminal oxygens of the nucleotide and water during hydrolysis, giving information about the value of k +3 /k −2, as previously described. In this case, (γ-^18O3)mantATP was used as substrate and partial hydrolysis occurred in the presence of RecG⋅DNA, as described in the materials and methods section. The Pi had very similar distribution of oxygen-18 as with (γ-^18O3)mantATP, consistent with essentially little reversal of the cleavage step (k +3 /k −2≥9). This is consistent with a rapid release of Pi.
For intermediate exchange during ATP hydrolysis, 0.5 µM RecG and 1 mM (γ-^18O3)ATP or (γ-^18O3)mantATP were incubated for 10 min (+1 µM DNA A40∶B40, Table S1) or 20 min (- DNA) at 25°C in a volume of 100 µl in the buffer described below. Pi was analyzed for distribution of different ^18O-labeled species on a mass spectrometer as described previously, [37] except that during purification, the ^18O-labeled Pi was detected by MDCC-PBP, rather than radioactive tracers.
Supplementary file pone.0038270.s005.pdf: Table S2 Oxygen exchange during ATP or mantATP hydrolysis by RecG: distributions of oxygen-18 in the Pi product. Experiments were performed as described in Materials and Methods. The data were corrected for isotopic enrichment of the starting nucleotide, 93% for (γ-^18O3)mantATP and 98% for (γ-^18O3) ATP. […] Each distribution is the average of three mass spectral assays. Thus the distributions are for the product Pi as though the starting enrichment was 100%. In all cases there was very little oxygen exchange as shown by the large peak of (^18O3)Pi, in which all three γ-oxygens of ATP are retained. The distributions were then used to compute the ratio of rate constants for Pi release (k +3) and on-enzyme ATP resynthesis (k −2) as in Figure 2 [14], [37].

RecG [2] = target: T1, RecG; test: Steady-state ATPase rate measurements with phosphate biosensor MDCC-PBP; assay type: biochemical; settings: for Ki: 10 µM ATP, varying inhibitor; for tightness of binding (competitive inhibition): result in words
From the text: Steady-state measurements were made to gain an overall assessment of the reaction and the affinities of various nucleotides before investigating the individual steps in the ATPase cycle. A two-strand DNA junction, which contains two 20-bp regions of complementary and non-complementary sequences (A40:B40 Figure 1 and Table S1), was used in all these measurements. This forms a Y-shape structure and RecG translocates one single-stranded arm, but then remains bound to the end of the junction still hydrolyzing ATP [10].
All reactions with RecG and DNA were done at 20°C in a buffer containing 50 mM Tris⋅acetate (pH 8.0), 30 mM potassium acetate, 3 mM magnesium acetate and 1 mM DTT. ATPase measurements using MDCC-PBP were taken in the presence of a Pi mop, as described above. Steady-state ATPase measurements were taken in a solution (60 µl) at 20°C, containing 10 nM RecG, 500 nM DNA junction (A40∶B40, see Table S1) and 10 µM MDCC-PBP with varying nucleotide concentrations as substrate or inhibitor [23].

RecG⋅DNA(A40:B40) [3] = target: T2, RecG⋅DNA(A40:B40) (Thermotoga maritima, UniProt Q9WY48); test: Stopped-flow mant fluorescence: mant nucleotide binding to RecG⋅DNA, pseudo-first-order
T2 construct: made in house
T2 sequence (Q9WY48 1-780): T1 sequence (Q9WY48 1-780)
Experimental: MantATP binding to RecG⋅DNA(A40:B40) was measured under pseudo-first-order conditions, that is mantATP in large excess over the protein. Using the stopped-flow apparatus, several concentrations of mantATP were rapidly mixed with RecG⋅DNA and fluorescence followed with time. Each trace was fitted by a single exponential (Figure 3A) and the concentration dependence of the observed rate constants were fit well by a hyperbola (Figure 3B). […] As mantATP is also hydrolyzed, the rate of the forward reaction needs to be included, in this case limited by the cleavage step 2, as described later. The fit gives 1/K 1a as 24 (±4) µM, k +1b + k −1b + k +2 as 26.1 (±1.8) s^−1 and the intercept gives k −1b + k +2 as <1 s^−1. Given that k +2 is 0.2 s^–1 (see below), k −1b is <0.8 s^−1. Potentially, an alternative explanation for such a hyperbolic relationship could be preferential binding of either the 2′- or 3′-isomer of mantATP and then isomerization of the non-favored isomer. However, the observed rates in these measurements were several orders of magnitude faster than the likely isomerization rate. In order to assess whether the two isomers of mantATP and their interconversion are factors in any fluorescence traces for mantATP, an equivalent measurement was made using 3′-mant-2′-deoxyATP.
Figure 3 MantATP binding to RecG⋅DNA. MantATP at the micromolar concentrations shown was mixed in the stopped flow apparatus with 0.5 µM RecG and 2.5 µM DNA Junction (A40:B40) at 20°C in the buffer described in materials and methods. Individual traces (offset from each other) were fitted to single exponentials and the dependence of the rate constants on concentration was then fitted by a hyperbola. The points shown are averages of at least 3 measurements. The fit gives 1/K 1a as 24 (±4) µM and k +1b + k− 1b + k +2 as 26.1 (±1.8) s^−1 and the intercept was <1 s^–1 (Scheme in Figure 2B).
MantADP binding to RecG⋅DNA complex was measured under pseudo-first order conditions by stopped-flow fluorescence.
Figure 5 MantADP binding kinetics to RecG⋅DNA. MantADP at various concentrations was mixed in the stopped flow apparatus with 0.5 µM RecG and 2.5 µM DNA (A40:B40) under the conditions of Figure 4. Traces (not shown) were fitted by single exponentials. The rate constants are shown as a function of concentration and the best linear fit, gives a slope of 1.1 (±0.4) µM^−1s^−1 and an intercept of <1 s^−1.
(§1) Stopped-flow experiments were performed in a HiTech SF61DX2 apparatus (TgK Scientific Ltd, Bradford-on-Avon, UK) with a mercury-xenon light source and HiTech KinetAsyst 3 or Kinetic Studio 1 software. For MDCC-PBP fluorescence, the excitation wavelength used was 436 nm and a 455 nm cut-off filter (Schott glass) used to collect emitted light. The signal was calibrated using known concentrations of Pi. The solutions contained the Pi mop, to minimize phosphate contamination and comprising 0.01 unit ml^−1 bacterial purine nucleoside phosphorylase and 200 µM 7-methylguanosine. For mant fluorescence, 366 nm was used to excite and a 400 nm cut-off filter (Schott glass) used to collect light. Measurements of Cy3 fluorescence used 547 nm excitation and a 570 nm cut-off filter. In experiments described, the quoted concentrations are those in the mixing chamber, except where stated. Data were fitted to theoretical curves using the HiTech software or Grafit.

RecG⋅DNA(A40:B40) [4] = target: T2, RecG⋅DNA(A40:B40); test: Single turnover mant fluorescence, excess RecG⋅DNA over mantATP; assay type: biochemical; settings: excess RecG⋅DNA(A40:B40)
Experimental: Extra information relating to changes in a single ATPase cycle can be obtained by mixing excess RecG⋅DNA(A40:B40) with mantATP (Figure 4A). […] The first change in fluorescence is presumably due to binding. After fitting to a double exponential, the observed rate constant for the initial change was linearly dependent on RecG concentration over the small range possible (0.5 µM –2.5 µM), limited by protein precipitation at higher concentrations. Due to the low concentrations, a hyperbolic dependence would not be observed. The observed rate constant of the second increase in fluorescence, 0.22 (±0.05) s^−1 (Figure 4A), was independent of RecG concentration. This second phase is likely to be due to the cleavage step, leading to the formation of bound mantADP.
Figure 4 Kinetic measurement of mantATP with excess of RecG and DNA: binding, hydrolysis and Pi release. The concentrations for all experiments were 0.5 µM mantATP, 2.5 µM RecG, 5 µM DNA (A40:B40) and 10 µM MDCC-PBP (for Pi measurement). All measurements were carried out at 20°C in the buffer described in Materials and Methods. (A) Time course of mant fluorescence (solid line), mantADP formation (circles) and Pi release (dashed line), measured as described in materials and methods. […] (B) Simulation of these time courses, based upon a global model for a single turnover of mantATP as described in the text. (C) The time course of mant fluorescence upon mixing 0.5 µM mantATP and 2.5 µM RecG with 5 µM DNA junction (A40:B40) after a first mixing of 5 µM RecG and 1 µM mantATP and aging for 1 s.
as §1

RecG [5] = target: T1, RecG; test: Titrations of RecG into fluorescent nucleotides in the absence of DNA; assay type: binding
Experimental: The two phases of this fluorescence increase with excess RecG⋅DNA would therefore relate to formation of bound mantATP (1.5-fold intensity increase relative to free nucleotide) and bound mantADP (4.9-fold). This interpretation was supported by titrations of RecG into the fluorescent nucleotides in the absence of DNA.
Steady-state fluorescence was measured using a Cary Eclipse fluorimeter (Varian) with a xenon light source. Absorbance spectroscopy was performed using a Beckman DU640 spectrophotometer.

[6] = 500 nM DNA junction (A40:B40), 20°C
[7] = 20°C, 10 nM RecG, 500 nM DNA junction (A40:B40)

## (γ-^18O3)mantATP
RecG [1]
  k +3 /k −2: ≥ 9

## Nc1ncnc2c1ncn2[C@@H]1O[C@H](COP(=O)(O)OP(=O)(O)NP(=O)(O)O)[C@@H](O)[C@H]1O [AMPPNP]
RecG [2]; [6]
  Ki: 44 µM
RecG [2]
  tightness of binding (competitive inhibition): bound weakly

## CNc1ccccc1C(=O)O[C@H]1[C@@H](O)[C@H](n2cnc3c(N)ncnc32)O[C@@H]1COP(=O)(O)OP(=O)(O)O [mantADP]
RecG [2]; [6]
  Ki: 0.03 µM
RecG⋅DNA(A40:B40) [3]; 20°C, linear fit
  k +4 (mantADP dissociation rate constant, intercept): < 1 s⁻¹
RecG⋅DNA(A40:B40) [3]; mantADP with RecG⋅DNA, used as model assumption
  Kd: < 0.05 µM
RecG⋅DNA(A40:B40) [3]; same conditions as hydrolysis and Pi release measurements
  increase in fluorescence on binding to RecG⋅DNA: 4.5 fold
RecG⋅DNA(A40:B40) [4]
  fluorescence intensity increase of bound nucleotide relative to free nucleotide: 4.9 fold
RecG [5]
  increase in fluorescence on titration with RecG: 4.8 fold

## CNc1ccccc1C(=O)O[C@H]1C[C@H](n2cnc3c(N)ncnc32)O[C@@H]1COP(=O)(O)OP(=O)(O)OP(=O)(O)O [Mant-deoxyATP, 3′-mant-2′-deoxyATP]
RecG [2]; [7]
  K m: 3.1 (±1.4) µM
  k cat: 1.3 (±0.5) s^−1

## Nc1ncnc2c1ncn2[C@@H]1O[C@H](CO[P@](=O)(O)O[P@](=O)(O)O[P@@](=O)(O)S)[C@@H](O)[C@H]1O [ATPγS]
RecG [2]; [6]
  Ki: 0.9 µM
RecG [2]
  tightness of binding (competitive inhibition): bound tightly
RecG [2]; slowly hydrolyzed analogue
  rate of hydrolysis: 0.1 s⁻¹

## CNc1ccccc1C(=O)O[C@H]1C[C@H](n2cnc3c(N)ncnc32)O[C@@H]1COP(=O)(O)OP(=O)(O)O [Mant-deoxyADP]
RecG [2]; [6]
  Ki: 0.1 µM
